Experiments:
[1] = tested on: human ovarian cancer (MCAS); assay: Example 12: FK330 with paclitaxel in MCAS tumor-bearing mice; format: in vivo, nude mice; conditions: FK330 100 mg/kg bid p.o. + paclitaxel 10 mg/kg/day i.v. (5 days each cycle)
Experimental: The dose of FK330 is expressed in terms of the weight of a simple substance (non-hydrate). Paclitaxel was purchased from LC Laboratories, Inc. (Woburn, Mass., USA), and was used as paclitaxel.
FK330 was suspended (20 mg/mL) in a 0.5% aqueous methyl cellulose solution (0.5% MC), and was orally administered. Paclitaxel was prepared into a stock solution at 10 mg/mL with an ethanol/cremophor solution (mixed at 1:1), and then the stock solution was diluted to 1 mg/mL with physiological saline for injection (Otsuka Pharmaceutical Group) immediately before administration and was intravenously administered through the tail vein.
Human ovary cancer-derived MCAS (JCRB0240) was obtained from Health Science Research Resources Bank (HSRRB) and used. The cells were cultured under the conditions of 37° C. and 5% CO2 by using EMEM medium containing 20% fetal bovine serum (FBS). […]
The body weight and the tumor diameter, determined by using a digital caliper, were measured twice a week. The tumor volume was calculated from the calculation formula for ellipsoid volume of (major axis×[minor axis]^2×0.5).
The results are expressed as the mean value (Mean)±standard error (SEM). […]

[2] = target: T1, purified pig brain-derived tubulin (Sus scrofa, UniProt P02550+P02554); assay: Example 7: fluorescence-based assay of tubulin polymerization reaction; format: biochemical; conditions: paclitaxel final concentration 3 μmmol/L; 60 minutes after initiation; P<0.05
T1 construct: purified pig brain-derived tubulin (final concentration: 2 mg/mL); purchased Cytoskeleton, Inc. (Denver, Colo., USA); host or cells: pig brain (tissue-purified)
Experimental: S-nitroso-N-acetyl-D,L-penicillamine (SNAP), which is a NO donor, was purchased from Cayman Chemical Co. (Ann Arbor, Mich., USA) and used. A tubulin polymerization analysis kit was purchased from Cytoskeleton, Inc. (Denver, Colo., USA) and used. For paclitaxel, a paclitaxel included in the analysis kit was used as paclitaxel. Docetaxel was purchased from Sigma-Aldrich Co. (St. Louis, Mo., USA) and was used as docetaxel.
A fluorescence-based assay of tubulin polymerization reaction was carried out according to the manufacturer's instruction of the kit. That is, purified pig brain-derived tubulin (final concentration: 2 mg/mL) and SNAP (final concentration: 200 or 500 μmol/L) were incubated at room temperature for 15 minutes or longer in the buffer solution included in the kit. Subsequently, paclitaxel (final concentration: 3 μmmol/L) or docetaxel (final concentration: 1 μmol/L), and […] (final concentration: 1 mmol/L) were added to this buffer mixture, and then was incubated for 60 minutes at 37° C. During this incubation, the fluorescence intensity (measurement wavelength: excitation 350 nm/fluorescence 435 nm) was measured every one minute by using a microplate reader (Spectramax, Molecular Devices, LLC, Sunnyvale, Calif., USA). The value of fluorescence intensity was expressed as a percentage relative to the SNAP and taxane-untreated group by using the value obtained 60 minutes after the initiation of the reaction, which corresponded to the equilibrium steady-state phase, and the average value for three experiments was taken as the value.
The results are expressed as the mean value (Mean)±standard error (SEM) of five independent experiments. A comparison between a paclitaxel- or docetaxel-treated group and an untreated group was carried out by an unpaired statistical test (Student's t-test) of the difference between two groups. A comparison between a SNAP-untreated group (control group) and SNAP-treated groups (200 μmol/L and 500 μmol/L) in the presence or absence of the taxane-family drugs was carried out by Dunnett's multiple comparison test. A difference value of less than 5% was considered to be statistically significant. For the data processing, Graphpad Prism version 5.03 was used.

T1 sequence (P02554 whole entry): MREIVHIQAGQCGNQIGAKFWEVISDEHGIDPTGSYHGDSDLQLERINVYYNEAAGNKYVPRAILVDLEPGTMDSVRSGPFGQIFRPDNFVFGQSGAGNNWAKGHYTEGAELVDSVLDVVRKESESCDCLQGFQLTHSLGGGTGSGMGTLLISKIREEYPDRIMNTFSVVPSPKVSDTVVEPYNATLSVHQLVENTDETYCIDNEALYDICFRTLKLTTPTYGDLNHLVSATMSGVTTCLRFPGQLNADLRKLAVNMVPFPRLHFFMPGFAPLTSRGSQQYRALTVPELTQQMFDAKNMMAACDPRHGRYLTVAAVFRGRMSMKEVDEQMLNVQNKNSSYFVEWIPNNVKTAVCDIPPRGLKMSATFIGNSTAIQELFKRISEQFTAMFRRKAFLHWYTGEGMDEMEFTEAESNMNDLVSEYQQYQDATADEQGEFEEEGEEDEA
T1 sequence (P02550 whole entry): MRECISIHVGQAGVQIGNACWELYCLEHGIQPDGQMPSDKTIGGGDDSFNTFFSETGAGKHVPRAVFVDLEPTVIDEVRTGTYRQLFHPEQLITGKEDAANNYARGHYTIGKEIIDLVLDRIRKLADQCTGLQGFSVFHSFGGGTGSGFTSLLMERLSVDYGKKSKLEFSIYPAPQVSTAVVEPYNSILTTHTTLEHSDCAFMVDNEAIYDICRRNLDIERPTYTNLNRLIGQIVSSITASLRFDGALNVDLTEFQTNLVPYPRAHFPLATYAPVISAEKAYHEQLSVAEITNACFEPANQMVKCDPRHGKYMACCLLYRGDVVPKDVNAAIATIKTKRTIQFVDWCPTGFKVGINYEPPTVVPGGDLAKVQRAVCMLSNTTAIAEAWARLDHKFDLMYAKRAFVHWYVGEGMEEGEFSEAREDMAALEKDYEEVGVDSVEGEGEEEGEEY

| Compound | tumor volume reduction ratio compared with the paclitaxel-only group ([1]; Day 63, no significant difference) [%] | tumor volume reduction ratio compared with the paclitaxel-only group ([1]; Day 91, P<0.05) [%] | tubulin polymerization (fluorescence intensity) as compared with the taxane-untreated group [2] [%] |
| --- | --- | --- | --- |
| O=C(/C=C/c1ccc(Cl)cc1)N[C@@H](Cc1ccccn1)C(=O)NCC(=O)N1CCC(Oc2cc(C(F)(F)F)ncn2)CC1 [FK330, N^2-[(2E)-3-(4-chlorophenyl)-2-propenoyl]-N-[2-oxo-2-(4-{[6-(trifluoromethyl)pyrimidin-4-yl]oxy}piperidin-1-yl)ethyl]-3-pyridin-2-yl-L-alaninamide] | 61.5 | 86.0 | – |
| CC(=O)O[C@H]1C(=O)[C@@]2(C)[C@H]([C@H](OC(=O)c3ccccc3)[C@]3(O)C[C@H](OC(=O)[C@H](O)[C@@H](NC(=O)c4ccccc4)c4ccccc4)C(C)=C1C3(C)C)[C@]1(OC(C)=O)CO[C@@H]1C[C@@H]2O [paclitaxel, reference compound] | – | – | 152.7 |

Reference: US20140066385A1, “METHOD FOR TREATING CANCER BY COMBINED USE OF DRUGS” (Astellas Pharma Inc., priority 2011, published 2014)
